Structures are written as SMILES.

The subject of one test is TNFα secretion. Description: HL-60 TNFα Release Assay (inhibition of TNFα secretion, ELISA). The format is cell-based. The following applies: Homo sapiens, HL-60 cells, 40 nM phorbol myristate acetate, 20 hr at 37° C. How it is done: The inhibition of TNFα secretion by the compounds of this invention was determined using a HL-60 TNFα Release Assay. HL-60 cells were cultured in RPMI 1640 with 10% fetal bovine serum and penicillin/streptomycin. HL-60 cells (150,000 cells/well) were placed in 96 well culture plates in RPMI 1640 with 10% fetal bovine serum and pen/strep containing 40 nM phorbol myristate acetate and test compound in DMSO (final DMSO 0.1%). HL-60 cells were then cultured for 20 hr at 37° C. (95% humidity) after which cell supernatants were collected for analysis of TNFα by ELISA.

A further test has as its target T1, stromelysin (Homo sapiens, UniProt P08254).
T1 construct: made in house; host or cells: E. coli
Description: Determination of stromelysin inhibition (cleavage of thiopeptide ester substrate, DTNB readout). In kind it is biochemical. The following applies: for IC50: recombinant truncated human stromelysin, pH 6.5, 30 min, ambient temperature, read-out: IC50, inhibitory potency against stromelysin. How it is done: The inhibition of stromelysin by the compounds of this invention was determined as follows: Recombinant truncated stromelysin (human sequence) produced in E. coli was prepared by expression and purification of the protein as described by Ye et al., Biochemistry, 1992, 31, 11231-11235. The enzyme was assayed by its cleavage of the thiopeptide ester substrate Ac-Pro-Leu-Gly-[2-mercapto-4-methyl-pentanoyl]-Leu-Gly-OEt described by Weingarten and Feder, Anal Biochem., 1985, 147, 437-440 (1985), as a substrate of vertebrate collagenase. The reported conditions were modified to allow assays to be carried out in a microtiter plate. Upon hydrolysis of the thioester bond, the released thiol group reacts rapidly with 5,5'-dithio-bis(2-nitrobenzoic acid) (DTNB), producing a yellow color which is measured by a microtiter plate reader set al 405 nm. The rates of cleavage of the substrate by stromelysin in the presence or absence of inhibitors are measured in a 30 min assay at ambient temperature. Solutions of the compounds in DMSO are prepared, and these are diluted at various concentrations into the assay buffer (50 mM MES/NaOH pH 6.5 with 10 mM CaCl2 and 0.2% Pluronic F-68), which is also used for dilution of the enzyme and substrate. The potency of the compounds [IC50 ] are calculated from the inhibition/inhibitor concentration data.

T1 sequence (P08254 100-273 limits assumed): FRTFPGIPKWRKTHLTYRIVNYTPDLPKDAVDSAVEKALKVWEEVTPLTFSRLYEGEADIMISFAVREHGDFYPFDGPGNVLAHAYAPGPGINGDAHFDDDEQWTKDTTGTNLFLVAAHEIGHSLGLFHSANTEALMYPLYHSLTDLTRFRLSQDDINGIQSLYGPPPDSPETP

Consider `O=C(CCCOc1ccc(-c2ccccc2)cc1)NO` [Example 1, 4-(4-phenylphenoxy)butanohydroxamic acid], for which, in the test with TNFα secretion, testing at 16 µM gave an inhibition of 27%. Regarding `O=C(CCCOc1cccc(-c2ccccc2)c1)NO` [Example 2, 4-(3-phenylphenoxy)butanohydroxamic acid], the inhibition at 100 µM on stromelysin came to 5%.

As to `N#Cc1ccc(-c2ccc(OCCCC(=O)NO)cc2)cc1` [Example 3, 4-[4-(4-cyanophenyl)phenoxy]butanohydroxamic acid], on stromelysin, the IC50 was determined as 3500 nM. Take `N#Cc1cccc(-c2ccc(OCCCC(=O)NO)cc2)c1` [Example 4, 4-[4-(3-cyanophenyl)phenoxy]butanohydroxamic acid]: at stromelysin, the IC50 came out at 46000 nM. The inhibition at 16 µM in the test with TNFα secretion amounted to 64%. On the same counts, the results for `N#CCc1ccc(-c2ccc(OCCCC(=O)NO)cc2)cc1` [Example 5, 4-[4-(4-cyanomethylphenyl)phenoxy]butanohydroxamic acid] are 21000 nM and 82%. On the same counts, the results for `N#CCc1cccc(-c2ccc(OCCCC(=O)NO)cc2)c1` [Example 6, 4-[4-(3-cyanomethylphenyl)phenoxy]butanohydroxamic acid] are 1900 nM and 40%.

In the case of `O=C(CCCOc1ccc(-c2ccc(Cl)cc2)cc1)NO` [Example 7, 4-[4-(4-chlorophenyl)phenoxy]butanohydroxamic acid], at 100 µM the inhibition against stromelysin was 47%. The inhibition at 16 µM in the test on TNFα secretion is 35%. In the case of `CCCc1ccc(-c2ccc(OCCCC(=O)NO)cc2)cc1` [Example 8, 4-[4-(4-propylphenyl)phenoxy]butanohydroxamic acid], the IC50 at stromelysin was determined as 10000 nM. In the test on TNFα secretion, 16 µM produced 35% inhibition. On to `COc1ccc(-c2ccc(OCCCC(=O)NO)cc2)cc1` [Example 9, 4-[4-(4-methoxyphenyl)phenoxy]butanohydroxamic acid], for which, on stromelysin, the IC50 amounted to 34000 nM.

In turn, `O=C(CCCCCCOc1ccc(-c2ccccc2)cc1)NO` [Example 10, 7-(4-phenylphenoxy)heptanohydroxamic acid] displayed an inhibition at 100 µM against stromelysin of 45%.

For `N#Cc1ccc(-c2ccc(OCCCCCCC(=O)NO)cc2)cc1` [Example 11, 7-[4-(4-cyanophenyl)phenoxy]heptanohydroxamic acid], on stromelysin, the IC50 stood at 2300 nM. This compound yielded an inhibition at 16 µM in the test on TNFα secretion of 77%. Compound `O=C(CCCCOc1cccc(-c2ccc(F)cc2)c1)NO` [Example 12, 5-[3-(4-fluorophenyl)phenoxy]pentanohydroxamic acid] displayed an inhibition at 100 µM against stromelysin of 20%. The compound also yielded an inhibition at 16 µM in the test on TNFα secretion of 62%. Taken in the same sequence, the figures for `N#Cc1cccc(-c2cccc(OCCCCC(=O)NO)c2)c1` [Example 13, 5-[3-(3-cyanophenyl)phenoxy]pentanohydroxamic acid] were 24% and 67%.

Consider `N#Cc1ccc(-c2cccc(OCCCCC(=O)NO)c2)cc1` [Example 14, 5-[3-(4-cyanophenyl)phenoxy]pentanohydroxamic acid], for which, on stromelysin, the IC50 came to 123000 nM. Testing at 16 µM in the test on TNFα secretion gave an inhibition of 64%. On the same counts, the results for `O=C(CCCOc1cccc(-c2ccc(F)cc2)c1)NO` [Example 15, 4-[3-(4-fluorophenyl)phenoxy]butanohydroxamic acid] are 74000 nM and 63%.

Turning to `N#Cc1ccc(-c2cccc(OCCCC(=O)NO)c2)cc1` [Example 16, 4-[3-(4-cyanophenyl)phenoxy]butanohydroxamic acid], the IC50 at stromelysin came out at 24000 nM. The same measure, in the same setting: the value for `N#Cc1cccc(-c2cccc(OCCCC(=O)NO)c2)c1` [Example 17, 4-[3-(3-cyanophenyl)phenoxy]butanohydroxamic acid] was 2500 nM.

As to `O=C(CCCCOc1cccc(-c2ccccc2)c1)NO` [Example 18, 5-[3-phenylphenoxy]pentanohydroxamic acid], at stromelysin, the IC50 came out at 74000 nM. In the test on TNFα secretion, this compound registered an inhibition at 16 µM of 62%. `O=C(CCCCOc1ccc(-c2ccccc2)cc1)NO` [Example 19, 5-[4-phenylphenoxy]pentanohydroxamic acid] displayed an inhibition at 16 µM in the test on TNFα secretion of 61%.

For `N#Cc1ccc(-c2ccc(OCCCCC(=O)NO)cc2)cc1` [Example 20, 5-[4-(4-cyanophenyl)phenoxy]pentanohydroxamic acid], at 16 µM the inhibition in the test on TNFα secretion was 50%. As to `O=C(CCCCCOc1ccc(-c2ccccc2)cc1)NO` [Example 21, 6-[4-phenylphenoxy]hexanohydroxamic acid], the IC50 at stromelysin was found to be 77000 nM. Compound `O=C(CCOc1cccc(-c2ccccc2)c1)NO` [Example 24, 3-(3-phenylphenoxy)propanohydroxamic acid] gave an inhibition at 10 µM against stromelysin (@ 10 μM) of 14%. Besides, the inhibition at 16 µM with TNFα secretion is 59%.

For the compound `COc1ccc(-c2ccc(OCCC(=O)NO)cc2)cc1` [Example 26, 3-[4-(4-methoxyphenyl)phenoxy]propanohydroxamic acid], on stromelysin, the IC50 worked out at 79 nM. Same read-out and setting: the value for `O=C(CCOc1ccc(-c2ccc(F)cc2)cc1)NO` [Example 27, 3-[4-(4-fluorophenyl)phenoxy]propanohydroxamic acid] was 190 nM; that for `C[C@@H](COc1ccc(-c2ccccc2)cc1)C(=O)NO` [Example 28, (S)2-methyl-3-(4-phenylphenoxy)propanohydroxamic acid] was 150 nM.

As for `CNC(=O)C(CCOc1ccc(-c2ccc(C#N)cc2)cc1)CC(=O)NO` (stereo not shown) [Example 29, 3-(N-methylcarboxamido)-5-[4-(4-cyanophenyl)phenoxy]pentanohydroxamic acid], on stromelysin, the IC50 amounted to 350 nM. On the same count and under the same terms, the value for `O=C(CCSc1ccc(-c2ccccc2)cc1)NO` [Example 30, 3-(4-biphenylthio)propanohydroxamic acid] was 2100 nM. In the case of `O=C(CSc1ccc(-c2ccccc2)cc1)NO` [Example 31, 2-(4-biphenylthio)ethanohydroxamic acid], the IC50 at stromelysin came out at 880 nM. The same measure, in the same setting: the value for `O=C(CCNc1ccc(-c2ccccc2)cc1)NO` [Example 32, 3-(4-biphenylamino)propanohydroxamic acid] was 4600 nM. With `O=C(Cc1ccc(-c2ccccc2)cc1)NO` [Example 33, 2-(4-biphenyl)ethanohydroxamic acid], on stromelysin, the inhibition at 100 µM is 14%. `O=C(CCCc1ccc(-c2ccccc2)cc1)NO` [Example 34, 4-(4-biphenyl)butanohydroxamic acid]: the IC50 on stromelysin was found to be 58000 nM. In the test on TNFα secretion, this compound showed an inhibition at 16 µM of 52%. With `N#Cc1ccc(-c2ccc(CCCC(=O)NO)cc2)cc1` [Example 35, 4-[4-(4-cyanophenyl)phenyl]butanohydroxamic acid], at stromelysin, the IC50 worked out at 8300 nM. As to `O=C(CCc1ccc(-c2ccccc2)cc1)NO` [Example 37, 3-(4-biphenyl)propanohydroxamic acid], at stromelysin, the concentration for half-maximal inhibition (IC50) stood at 30000 nM.

As to `O=C(CCCCc1ccc(-c2ccccc2)cc1)NO` [Example 38, 5-(4-biphenyl)pentanohydroxamic acid], on stromelysin, the IC50 stood at 1000 nM. This compound also displayed an inhibition at 16 µM in the test with TNFα secretion of 65%. Turning to `O=C(CCCCOc1ccc(-c2ccc(F)cc2)cc1)NO` [Example 39, 5-[4-(4-fluorophenyl)phenoxy]pentanohydroxamic acid], testing at 100 µM against stromelysin gave an inhibition of 47%.

At stromelysin, `O=C(CCCOc1ccc(-c2ccccc2)cc1O)NO` [Example 40, 4-(2-hydroxy-4-phenylphenoxy)butanohydroxamic acid] yielded an inhibition at 100 µM of 39%. `O=C(CCCOc1cc(-c2ccccc2)ccc1O)NO` [Example 41, 4-(2-hydroxy-5-phenylphenoxy)butanohydroxamic acid]: at 100 µM the inhibition at stromelysin was 36%. On to `N#CCc1cccc(-c2ccc(OCCC(=O)NO)cc2)c1` [Example 42, 3-[4-(3-cyanomethylphenyl)phenoxy]propanohydroxamic acid], for which, on stromelysin, the IC50 was 15 nM. On the same count and under the same terms, the value for `CC(C)(C)OC(=O)CC(CCOc1ccc(-c2ccc(C#N)cc2)cc1)C(=O)NO` (stereo not shown) [Example 43, 2-tert-butyloxycarbonylmethyl-4-[4-(4-cyanophenyl)phenoxy]butanohydroxamic acid] was 490 nM; that for `N#CCc1ccc(-c2ccc(OCCC(=O)NO)cc2)cc1` [Example 44, 3-[4-(4-cyanomethylphenyl)phenoxy]propanohydroxamic acid] was 190 nM; that for `O=C(NO)C(O)COc1ccc(-c2ccccc2)cc1` (stereo not shown) [Example 45, 2-hydroxy-3-[(4-phenyl)phenoxy]propanohydroxamic acid] was 2300 nM.

Values taken from patent US5665777A, “Biphenyl hydroxamate inhibitors of matrix metalloproteinases” (Abbott Laboratories, priority 1995, dated 1997).
